Test results as given in the supplement of paper PMC10307832.

Tests used:
Test in all cases: relative viability (nuclei count vs DMSO), 5 days (fraction); higher = more cells survive
VX-11e + Lapatinib = compound: CC1=CN=C(N=C1C2=CNC(=C2)C(=O)N[C@H](CO)C3=CC(=CC=C3)Cl)NC4=C(C=C(C=C4)F)Cl [VX-11e] + CS(=O)(=O)CCNCc1ccc(-c2ccc3ncnc(Nc4ccc(OCc5cccc(F)c5)c(Cl)c4)c3c2)o1 [Lapatinib] (partner 2 µM)
Method in brief: (§1)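 Lung cancer cell lines, seeded in 1536-well plates, were treated the following day by pin tool with a single drug or with five library-drug doses (not always all listed) in √10 steps on top of a fixed anchor-drug dose. Cells were fixed and nuclei stained in one step after 5 days, and nuclei were counted. Relative viability is the nuclei count for treated wells divided by that for vehicle wells, reported as medians of duplicate plates.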

VX-11e + AZD7762 = compound: CC1=CN=C(N=C1C2=CNC(=C2)C(=O)N[C@H](CO)C3=CC(=CC=C3)Cl)NC4=C(C=C(C=C4)F)Cl [VX-11e] + NC(=O)Nc1cc(-c2cccc(F)c2)sc1C(=O)N[C@H]1CCCNC1 [AZD7762] (partner 0.2 µM)
Method in brief: as §1

VX-11e + Decitabine = compound: CC1=CN=C(N=C1C2=CNC(=C2)C(=O)N[C@H](CO)C3=CC(=CC=C3)Cl)NC4=C(C=C(C=C4)F)Cl [VX-11e] + Nc1ncn([C@H]2C[C@H](O)[C@@H](CO)O2)c(=O)n1 [Decitabine] (partner 2 µM)
Method in brief: as §1

VX-11e + Olaparib = compound: CC1=CN=C(N=C1C2=CNC(=C2)C(=O)N[C@H](CO)C3=CC(=CC=C3)Cl)NC4=C(C=C(C=C4)F)Cl [VX-11e] + O=C(c1cc(Cc2n[nH]c(=O)c3ccccc23)ccc1F)N1CCN(C(=O)C2CC2)CC1 [Olaparib] (partner 8 µM)
Method in brief: as §1

| Cell Line | relative viability (VX-11e + Lapatinib; first compound 0.04 µM) | relative viability (VX-11e + Lapatinib; first compound 0.1265 µM) | relative viability (VX-11e + Lapatinib; first compound 0.4 µM) | relative viability (VX-11e + Lapatinib; first compound 1.265 µM) | relative viability (VX-11e + Lapatinib; first compound 4 µM) | relative viability (VX-11e + AZD7762; first compound 0.04 µM) | relative viability (VX-11e + AZD7762; first compound 0.1265 µM) | relative viability (VX-11e + AZD7762; first compound 0.4 µM) | relative viability (VX-11e + AZD7762; first compound 1.265 µM) | relative viability (VX-11e + AZD7762; first compound 4 µM) | relative viability (VX-11e + Decitabine; first compound 0.04 µM) | relative viability (VX-11e + Decitabine; first compound 0.1265 µM) | relative viability (VX-11e + Decitabine; first compound 0.4 µM) | relative viability (VX-11e + Decitabine; first compound 1.265 µM) | relative viability (VX-11e + Decitabine; first compound 4 µM) | relative viability (VX-11e + Olaparib; first compound 0.04 µM) | relative viability (VX-11e + Olaparib; first compound 0.1265 µM) | relative viability (VX-11e + Olaparib; first compound 0.4 µM) | relative viability (VX-11e + Olaparib; first compound 1.265 µM) | relative viability (VX-11e + Olaparib; first compound 4 µM) |
| --- | --- | --- | --- | --- | --- | --- | --- | --- | --- | --- | --- | --- | --- | --- | --- | --- | --- | --- | --- | --- |
| LC-2-ad | 0.929 | 0.792 | 0.881 | 0.399 | 0.547 | 0.913 | 0.844 | 0.798 | 0.458 | 0.468 | 0.798 | 0.776 | 0.703 | 0.872 | 0.654 | 0.713 | 0.669 | 0.746 | 0.673 | 0.687 |
| LCLC-97TM1 | 1.09 | 0.8 |  | 0.226 | 0.171 | 0.259 | 0.172 | 0.23 | 0.175 | 0.14 | 0.259 | 0.209 | 0.221 |  | 0.171 | 0.432 | 0.363 | 0.29 |  | 0.103 |
| LK-2 |  | 0.832 | 0.812 | 0.522 | 0.439 | 0.299 | 0.388 | 0.326 | 0.316 | 0.294 | 0.179 | 0.33 | 0.177 | 0.208 | 0.207 | 0.688 | 0.783 | 0.676 | 0.657 | 0.45 |
| LOU-NH91 | 0.66 | 0.673 |  | 0.565 | 0.667 | 0.746 | 0.805 |  | 0.8 | 0.725 | 0.829 | 0.777 |  | 0.85 | 0.768 | 0.887 | 0.884 |  | 0.901 | 0.839 |
| LU99A | 1.03 | 0.913 | 0.864 | 0.253 | 0.235 | 0.244 | 0.37 | 0.142 | 0.18 | 0.195 | 0.872 | 0.81 | 0.822 | 0.727 | 0.347 | 0.248 | 0.247 | 0.298 | 0.226 | 0.221 |
| LXF-289 | 0.895 | 0.869 | 0.879 | 0.772 | 0.634 | 1.15 | 1.12 |  | 0.805 | 0.686 | 0.364 | 0.376 |  | 0.386 | 0.406 | 1.15 | 0.997 |  | 1.01 | 0.736 |
| NCI-H23 | 0.875 | 0.952 | 0.219 | 0.393 | 0.331 | 0.208 | 0.231 | 0.167 | 0.176 | 0.119 | 0.279 | 0.312 | 0.306 | 0.284 | 0.22 | 0.292 | 0.366 | 0.359 | 0.324 | 0.186 |
| NCI-H322M | 0.581 |  | 0.674 | 0.436 | 0.456 | 0.469 | 0.726 | 0.506 | 0.514 | 0.448 | 0.737 | 0.723 | 0.683 | 0.607 | 0.614 | 0.705 | 0.71 | 0.525 | 0.752 | 0.54 |
| NCI-H358 | 0.41 | 0.425 |  | 0.391 | 0.274 | 0.594 | 0.499 |  | 0.445 | 0.228 | 0.232 | 0.203 | 0.124 | 0.222 | 0.142 | 0.594 | 0.525 | 0.525 | 0.441 | 0.163 |
| NCI-H460 | 1.13 | 0.85 | 0.823 | 0.542 | 0.0703 | 0.561 | 0.54 |  | 0.646 | 0.378 | 0.568 | 0.43 | 0.165 | 0.472 | 0.184 | 0.427 | 0.429 |  | 0.315 | 0.236 |
| NCI-H596 | 1.2 | 0.938 | 0.933 | 0.917 | 0.774 | 1.03 | 0.895 | 1.01 | 0.748 | 0.778 | 0.864 | 1.05 | 1.01 | 0.998 | 0.834 | 0.594 | 0.657 | 0.688 | 0.543 | 0.615 |
| NCI-H647 | 0.863 | 0.902 | 0.546 | 0.476 | 0.353 | 0.347 | 0.573 |  | 0.426 | 0.215 | 0.378 | 0.355 | 0.349 | 0.537 | 0.449 | 0.627 | 0.591 | 0.617 | 0.422 | 0.303 |
| NCI-H650 |  | 0.894 | 0.944 |  | 0.909 | 1.08 | 0.935 | 0.964 | 0.994 | 0.553 | 0.386 | 0.312 | 0.325 | 0.403 | 0.371 | 0.512 | 0.417 | 0.466 | 0.486 | 0.537 |
| NCI-H727 | 0.699 | 0.591 | 1.19 | 0.501 | 0.307 | 0.519 | 0.616 | 0.652 | 0.476 | 0.385 | 0.599 | 1.07 | 0.72 | 0.638 | 0.421 | 0.626 | 0.593 | 0.747 | 0.678 | 0.457 |
| NCI-H838 | 0.856 | 0.92 | 0.396 | 0.701 | 0.627 | 0.784 | 0.962 | 0.728 | 0.977 | 0.834 | 0.44 | 0.428 | 0.447 | 0.474 | 0.524 | 0.785 | 0.802 | 0.702 | 0.738 | 0.671 |
